How the values were obtained:
Format in all cases: cell-based
human TLR9 = molecular target: T1, human TLR9 (Homo sapiens, UniProt Q9NR96); experiment: TLR9 inhibition reporter assay (HEK-Blue cells, SEAP reporter); details: HEK-Blue cells overexpressing human TLR9; stimulated with ODN2006 5 nM; 22 hour incubation; SEAP readout
T1 sequence (Q9NR96 26-1032): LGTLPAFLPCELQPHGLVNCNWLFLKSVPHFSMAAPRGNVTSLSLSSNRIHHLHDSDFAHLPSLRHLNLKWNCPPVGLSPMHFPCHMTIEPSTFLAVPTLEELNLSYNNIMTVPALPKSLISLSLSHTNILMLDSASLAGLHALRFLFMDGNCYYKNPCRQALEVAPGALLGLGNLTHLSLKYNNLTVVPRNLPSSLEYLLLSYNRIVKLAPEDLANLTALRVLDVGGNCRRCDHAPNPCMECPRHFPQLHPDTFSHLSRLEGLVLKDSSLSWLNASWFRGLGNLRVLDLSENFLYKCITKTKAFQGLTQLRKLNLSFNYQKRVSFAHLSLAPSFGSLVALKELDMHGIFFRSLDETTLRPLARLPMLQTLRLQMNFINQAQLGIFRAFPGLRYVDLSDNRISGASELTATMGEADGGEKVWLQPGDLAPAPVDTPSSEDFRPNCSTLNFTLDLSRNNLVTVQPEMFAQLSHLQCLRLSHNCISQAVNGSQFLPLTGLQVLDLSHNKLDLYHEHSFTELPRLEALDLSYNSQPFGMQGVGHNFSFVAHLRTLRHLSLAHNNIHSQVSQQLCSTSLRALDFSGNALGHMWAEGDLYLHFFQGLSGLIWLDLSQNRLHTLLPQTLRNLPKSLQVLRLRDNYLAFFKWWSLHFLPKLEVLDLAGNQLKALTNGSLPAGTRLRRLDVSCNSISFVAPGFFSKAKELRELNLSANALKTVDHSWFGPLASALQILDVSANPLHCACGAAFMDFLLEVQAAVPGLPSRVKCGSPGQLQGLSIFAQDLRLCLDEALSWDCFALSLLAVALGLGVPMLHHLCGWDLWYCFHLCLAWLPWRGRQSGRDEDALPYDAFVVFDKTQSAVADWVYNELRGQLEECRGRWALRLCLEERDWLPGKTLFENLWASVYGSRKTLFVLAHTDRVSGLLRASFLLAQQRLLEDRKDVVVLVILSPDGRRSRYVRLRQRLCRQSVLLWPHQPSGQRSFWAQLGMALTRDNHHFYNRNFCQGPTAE
Outline: (§1)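 HEK-Blue cells with NF-κB/AP-1-driven SEAP pre-treated 30 min with compound (0.05 nM–50 μM), then stimulated with gardiquimod 7.5 μM (TLR7), R848 15.9 μM (TLR8) or ODN2006 5 nM (TLR9). SEAP detected after 22 h at 37 °C; percent inhibition relative to agonist-plus-DMSO and known-inhibitor wells.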

human TLR7 = molecular target: T2, human TLR7 (Homo sapiens, UniProt Q9NYK1); experiment: TLR7 inhibition reporter assay (HEK-Blue cells, SEAP reporter); details: HEK-Blue cells overexpressing human TLR7; stimulated with gardiquimod 7.5 μM; 22 hour incubation; SEAP readout
T2 sequence (Q9NYK1 27-1049): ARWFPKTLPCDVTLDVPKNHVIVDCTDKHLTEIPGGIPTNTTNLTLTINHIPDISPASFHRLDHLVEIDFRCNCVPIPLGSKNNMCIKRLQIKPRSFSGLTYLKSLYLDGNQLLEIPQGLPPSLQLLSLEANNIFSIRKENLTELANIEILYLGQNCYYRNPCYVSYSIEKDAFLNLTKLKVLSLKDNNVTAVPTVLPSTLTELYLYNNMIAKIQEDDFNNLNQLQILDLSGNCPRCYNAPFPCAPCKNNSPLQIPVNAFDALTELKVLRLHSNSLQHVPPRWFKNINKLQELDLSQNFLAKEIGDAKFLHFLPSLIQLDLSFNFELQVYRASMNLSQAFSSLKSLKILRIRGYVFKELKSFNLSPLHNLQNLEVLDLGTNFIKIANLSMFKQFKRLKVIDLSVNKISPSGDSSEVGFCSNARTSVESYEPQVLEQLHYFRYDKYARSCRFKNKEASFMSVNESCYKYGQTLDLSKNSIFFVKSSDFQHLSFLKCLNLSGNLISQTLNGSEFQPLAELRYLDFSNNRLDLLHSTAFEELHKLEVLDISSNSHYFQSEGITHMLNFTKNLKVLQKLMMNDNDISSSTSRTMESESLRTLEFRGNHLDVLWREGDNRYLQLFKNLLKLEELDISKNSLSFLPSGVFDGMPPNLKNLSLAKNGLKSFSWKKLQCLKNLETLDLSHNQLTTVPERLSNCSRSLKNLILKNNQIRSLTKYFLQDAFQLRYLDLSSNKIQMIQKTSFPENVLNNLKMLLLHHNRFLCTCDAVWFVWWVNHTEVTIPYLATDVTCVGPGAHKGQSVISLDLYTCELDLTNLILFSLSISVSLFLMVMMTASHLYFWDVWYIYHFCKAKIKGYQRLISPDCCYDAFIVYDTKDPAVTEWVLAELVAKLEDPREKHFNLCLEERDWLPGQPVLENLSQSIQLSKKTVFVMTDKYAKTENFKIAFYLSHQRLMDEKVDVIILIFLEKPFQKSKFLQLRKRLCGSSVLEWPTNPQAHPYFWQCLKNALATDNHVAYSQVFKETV
Outline: as §1

human TLR8 = molecular target: T3, human TLR8 (Homo sapiens, UniProt Q9NR97); experiment: TLR8 inhibition reporter assay (HEK-Blue cells, SEAP reporter); details: HEK-Blue cells overexpressing human TLR8; stimulated with R848 15.9 μM; 22 hour incubation; SEAP readout
T3 sequence (Q9NR97 27-1041): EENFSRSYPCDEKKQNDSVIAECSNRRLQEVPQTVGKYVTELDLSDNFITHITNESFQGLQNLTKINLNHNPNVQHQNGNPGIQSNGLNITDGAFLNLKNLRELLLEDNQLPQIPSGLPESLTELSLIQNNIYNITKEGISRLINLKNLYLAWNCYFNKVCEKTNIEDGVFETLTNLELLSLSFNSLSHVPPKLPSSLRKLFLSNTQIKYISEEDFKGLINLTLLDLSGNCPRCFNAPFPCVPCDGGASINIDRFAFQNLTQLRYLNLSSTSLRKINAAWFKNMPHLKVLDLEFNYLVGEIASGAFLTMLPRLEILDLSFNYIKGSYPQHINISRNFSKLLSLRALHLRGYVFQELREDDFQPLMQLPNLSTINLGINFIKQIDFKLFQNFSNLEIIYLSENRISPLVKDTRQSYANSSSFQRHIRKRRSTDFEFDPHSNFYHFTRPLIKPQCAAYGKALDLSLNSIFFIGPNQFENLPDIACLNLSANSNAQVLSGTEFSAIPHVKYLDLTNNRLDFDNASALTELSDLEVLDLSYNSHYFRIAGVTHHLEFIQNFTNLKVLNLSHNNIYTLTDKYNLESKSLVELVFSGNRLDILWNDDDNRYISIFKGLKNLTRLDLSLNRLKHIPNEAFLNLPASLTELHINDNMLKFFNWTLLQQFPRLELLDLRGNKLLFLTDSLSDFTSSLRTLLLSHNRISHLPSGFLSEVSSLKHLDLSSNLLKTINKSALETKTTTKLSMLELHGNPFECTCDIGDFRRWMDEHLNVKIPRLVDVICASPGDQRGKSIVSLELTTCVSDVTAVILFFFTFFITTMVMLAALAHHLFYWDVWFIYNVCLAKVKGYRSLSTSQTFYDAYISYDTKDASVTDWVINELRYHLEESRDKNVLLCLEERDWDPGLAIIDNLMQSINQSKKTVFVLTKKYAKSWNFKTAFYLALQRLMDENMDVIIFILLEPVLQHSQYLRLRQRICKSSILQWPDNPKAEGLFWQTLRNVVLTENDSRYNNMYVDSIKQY
Outline: as §1

| SMILES | IC50 (human TLR9) | IC50 (human TLR7) | IC50 (human TLR8) |
| --- | --- | --- | --- |
| COc1ccc(-c2cn3cc(C4CCN(C5CCN(C(C)C)CC5)CC4)cc(C)c3n2)cc1F [Example 5, 2-(3-fluoro-4-methoxyphenyl)-6-(1′-isopropyl-[1,4′-bipiperidin]-4-yl)-8-methylimidazo[1,2-a]pyridine] | 166 nM | 3000 nM | > 50000 nM |
| COc1ccc(-c2cn3cc(C4C[C@H]5CC[C@@H](C4)N5C4CCN(CC(C)C)CC4)cc(C)c3n2)cc1OC (mixture of isomers) [Example 27, 2-(3,4-dimethoxyphenyl)-6-(8-(1-isobutylpiperidin-4-yl)-8-azabicyclo[3.2.1]octan-3-yl)-8-methylimidazo[1,2-a]pyridine] | 17 nM | 1400 nM | > 50000 nM |
| CS(=O)(=O)c1ccc(-c2cn3cc(C4CCN(C5CC6CCC(C5)N6C5CCC5)CC4)cc(F)c3n2)cc1 (single isomer, unassigned) [Example 118, 6-(1-(8-cyclobutyl-8-azabicyclo[3.2.1]octan-3-yl)piperidin-4-yl)-8-fluoro-2-(4-(methylsulfonyl)phenyl)imidazo[1,2-a]pyridine] | 21 nM | 1100 nM | 17100 nM |
| CC(C)CN1CCC(N2CCC(c3cn4cc(-c5ccc(S(C)(=O)=O)cc5)nc4cc3F)CC2)CC1 [Example 123, 7-fluoro-6-(1′-isobutyl-[1,4′-bipiperidin]-4-yl)-2-(4-(methylsulfonyl)phenyl) imidazo[1,2-a]pyridine] | 496 nM | > 50000 nM | > 50000 nM |
| CS(=O)(=O)c1ccc(-c2cn3cc(C4CCN(C5CC6CCC(C5)N6C5COC5)CC4)cc(F)c3n2)cc1 (single isomer, unassigned) [Example 119, 8-fluoro-2-(4-(methylsulfonyl)phenyl)-6-(1-(8-(oxetan-3-yl)-8-azabicyclo[3.2.1]octan-3-yl)piperidin-4-yl)imidazo[1,2-a]pyridine] | 30 nM | 10600 nM | > 50000 nM |
| COc1ccc(-c2nc3cc(C4CCN(C5CCN(C(C)C)CC5)CC4)ccn3n2)cc1OC [Example 60, 2-(3,4-dimethoxyphenyl)-7-(1′-isopropyl-[1,4′-bipiperidin]-4-yl)-[1,2,4]triazolo[1,5-a]pyridine] | 1100 nM | 29000 nM | > 50000 nM |
| CS(=O)(=O)c1ccc(-c2cn3cc(C4CCN(C5CCCN(CC6CC6)CC5)CC4)cc(F)c3n2)cc1 (single isomer, unassigned) [Example 127, 6-(1-(1-(cyclopropylmethyl)azepan-4-yl)piperidin-4-yl)-8-fluoro-2-(4-(methylsulfonyl)phenyl)imidazo[1,2-a]pyridine] | 9.7 nM | 1600 nM | 36000 nM |
| COc1ccc(-c2cn3cc(-c4ccc(N5CCN(C(C)C)CC5)cc4)cc(C)c3n2)cc1OC [Example 96, 2-(3,4-dimethoxyphenyl)-6-(4-(4-isopropylpiperazin-1-yl)phenyl)-8-methylimidazo[1,2-a]pyridine] | 232 nM | 2100 nM | 15000 nM |
| COc1ccc(-c2nc3cc(C4CCN(C5CCN(CC(C)C)CC5)CC4)ccn3n2)cc1OC [Example 61, 2-(3,4-dimethoxyphenyl)-7-(1′-isobutyl-[1,4′-bipiperidin]-4-yl)-[1,2,4]triazolo[1,5-a]pyridine] | 1240 nM | 11000 nM | > 50000 nM |
| CS(=O)(=O)c1ccc(-c2cn3cc(C4CCN(C5CCN(C6CC6)CC5)CC4)cc(F)c3n2)cc1 [Example 108, 6-(1′-cyclopropyl-[1,4′-bipiperidin]-4-yl)-8-fluoro-2-(4-(methylsulfonyl)phenyl) imidazo[1,2-a]pyridine] | 313 nM | 29500 nM | > 50000 nM |
| COc1ccc(-c2cn3c(n2)CCC(C2CCN(C4CCN(C5CC5)CC4)CC2)C3)cc1OC (single isomer, unassigned) [Example 37, 6-(1′-cyclopropyl-[1,4′-bipiperidin]-4-yl)-2-(3,4-dimethoxyphenyl)-5,6,7,8-tetrahydroimidazo[1,2-a]pyridine] | 62 nM | 4000 nM | > 50000 nM |
| COc1ccc(-c2cn3c(n2)CCC(C2CCN(C4CCN(C(C)C)CC4)CC2)C3)cc1OC (single isomer, unassigned) [Example 35, 2-(3,4-dimethoxyphenyl)-6-(1′-isopropyl-[1,4′-bipiperidin]-4-yl)-5,6,7,8-tetrahydroimidazo[1,2-a]pyridine] | 42 nM | 13000 nM | > 50000 nM |
| COc1ccc(-c2cn3cc(C4CCN(C5CCN(C6CC6)CC5)CC4)ccc3n2)cc1OC [Example 10, 6-(1′-cyclopropyl-[1,4′-bipiperidin]-4-yl)-2-(3,4-dimethoxyphenyl)imidazo[1,2-a]pyridine] | 129 nM | 5200 nM | > 50000 nM |

From US12486267B2, “Imidazo[1,2-A]pyridine and [1,2,4]triazolo[1,5-A]pyridine derivatives as TLR9 inhibitors for the treatment of fibrosis” (BRISTOL-MYERS SQUIBB COMPANY, priority 2020, dated 2025)
